Results as given in PMC10745491 (Frontiers in Cellular Neuroscience, 2023).
Like-named read-outs stand apart in the source and are kept apart here. Peptide text beside a SMILES is read from it.

Legend:
rat V1aR = rat V1aR (Rattus norvegicus, UniProt P30560); assay: cell-based; type: cell-based
A1 = A1 (Homo sapiens, UniProt P30542); assay: radioligand binding assay
alpha 1A = alpha 1A (Homo sapiens, UniProt P35348); type: binding
AT1 = AT1 (Homo sapiens, UniProt P30556); type: binding
BZD = assay: radioligand binding assay; design: species or system human
N muscle-type = N muscle-type (Homo sapiens, UniProt P02708+P07510+Q07001); type: binding
PCP = assay: radioligand binding assay; design: species or system human
FP = FP (Homo sapiens, UniProt P43088); type: binding
5-HT2B = 5-HT2B (Homo sapiens, UniProt P41595); assay: radioligand binding assay
Ca2+ channel = type: binding, human
Na+ channel = assay: radioligand binding assay; design: species or system human
acetylcholinesterase = acetylcholinesterase (Homo sapiens, UniProt P22303); type: biochemical
rat OXTR = rat OXTR (Rattus norvegicus, UniProt P70536)
[1] = in vivo, sc
[2] = rat
[3] = tested on: PFC layer 5 pyramidal neurons; details: rat, in vivo
CPA rats = details: rat, in vivo; for social interaction time (Fig. 5O): sc
mPFC transcriptome = details: rat, in vivo, 0.07 mg/kg
A3 = A3 (Homo sapiens, UniProt P0DMS8)
alpha 2A = alpha 2A (Homo sapiens, UniProt P08913)
beta 1 = beta 1 (Homo sapiens, UniProt P08588)
H1 = H1 (Homo sapiens, UniProt P35367)
M2 = M2 (Homo sapiens, UniProt P08172)
mu = mu (Homo sapiens, UniProt P35372)
PPARgamma = PPARgamma (Homo sapiens, UniProt P37231)
5-HT3 = 5-HT3 (Homo sapiens, UniProt P46098)
GR = GR (Homo sapiens, UniProt P04150)
ERalpha = ERalpha (Homo sapiens, UniProt P03372)
NE transporter = NE transporter (Homo sapiens, UniProt P23975)
COX2 = COX2 (Homo sapiens, UniProt P35354)
ACE = ACE (Homo sapiens, UniProt P12821)
GSK3alpha = GSK3alpha (Homo sapiens, UniProt P49840)
GSK3beta = GSK3beta (Homo sapiens, UniProt P49841)
[4] = molecular target: xanthine oxidase / superoxide O2-scavenging (Bos taurus, UniProt P80457)

Chain of AT1 (P30556 whole entry): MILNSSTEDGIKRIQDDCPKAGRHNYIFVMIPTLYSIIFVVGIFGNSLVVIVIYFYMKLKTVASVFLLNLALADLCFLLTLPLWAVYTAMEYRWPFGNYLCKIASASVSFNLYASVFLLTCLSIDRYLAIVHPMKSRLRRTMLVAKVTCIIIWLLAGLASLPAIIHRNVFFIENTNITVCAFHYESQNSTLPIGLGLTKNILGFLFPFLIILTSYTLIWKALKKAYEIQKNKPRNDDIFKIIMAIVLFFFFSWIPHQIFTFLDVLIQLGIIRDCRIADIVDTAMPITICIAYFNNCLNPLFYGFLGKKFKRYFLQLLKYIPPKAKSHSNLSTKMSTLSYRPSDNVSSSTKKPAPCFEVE
Chain of 5-HT3 (P46098 24-478): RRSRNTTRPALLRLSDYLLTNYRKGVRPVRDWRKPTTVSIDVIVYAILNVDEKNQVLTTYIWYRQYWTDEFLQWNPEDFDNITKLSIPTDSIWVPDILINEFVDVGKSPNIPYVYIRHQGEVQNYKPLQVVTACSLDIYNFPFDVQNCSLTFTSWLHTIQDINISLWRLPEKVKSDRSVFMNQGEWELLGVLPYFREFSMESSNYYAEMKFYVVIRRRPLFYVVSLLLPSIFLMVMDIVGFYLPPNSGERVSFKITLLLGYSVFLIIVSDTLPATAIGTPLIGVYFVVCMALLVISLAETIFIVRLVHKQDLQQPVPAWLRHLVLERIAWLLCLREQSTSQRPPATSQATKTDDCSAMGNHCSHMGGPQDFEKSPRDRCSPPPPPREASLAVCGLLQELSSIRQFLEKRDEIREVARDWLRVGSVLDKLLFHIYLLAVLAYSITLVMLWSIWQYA
Chain of GSK3alpha (P49840 whole entry): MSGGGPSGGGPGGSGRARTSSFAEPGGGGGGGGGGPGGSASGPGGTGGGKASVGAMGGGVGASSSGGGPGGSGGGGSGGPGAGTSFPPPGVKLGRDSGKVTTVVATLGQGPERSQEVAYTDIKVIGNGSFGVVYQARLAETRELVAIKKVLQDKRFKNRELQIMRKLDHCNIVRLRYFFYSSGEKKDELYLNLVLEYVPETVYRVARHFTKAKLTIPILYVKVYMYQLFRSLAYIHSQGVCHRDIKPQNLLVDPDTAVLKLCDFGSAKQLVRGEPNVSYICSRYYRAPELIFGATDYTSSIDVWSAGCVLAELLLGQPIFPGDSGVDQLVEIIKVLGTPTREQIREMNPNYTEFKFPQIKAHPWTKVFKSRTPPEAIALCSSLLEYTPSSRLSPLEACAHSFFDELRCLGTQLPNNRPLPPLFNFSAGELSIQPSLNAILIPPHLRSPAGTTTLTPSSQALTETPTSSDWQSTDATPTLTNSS
Chain of N muscle-type (P11230 24-501): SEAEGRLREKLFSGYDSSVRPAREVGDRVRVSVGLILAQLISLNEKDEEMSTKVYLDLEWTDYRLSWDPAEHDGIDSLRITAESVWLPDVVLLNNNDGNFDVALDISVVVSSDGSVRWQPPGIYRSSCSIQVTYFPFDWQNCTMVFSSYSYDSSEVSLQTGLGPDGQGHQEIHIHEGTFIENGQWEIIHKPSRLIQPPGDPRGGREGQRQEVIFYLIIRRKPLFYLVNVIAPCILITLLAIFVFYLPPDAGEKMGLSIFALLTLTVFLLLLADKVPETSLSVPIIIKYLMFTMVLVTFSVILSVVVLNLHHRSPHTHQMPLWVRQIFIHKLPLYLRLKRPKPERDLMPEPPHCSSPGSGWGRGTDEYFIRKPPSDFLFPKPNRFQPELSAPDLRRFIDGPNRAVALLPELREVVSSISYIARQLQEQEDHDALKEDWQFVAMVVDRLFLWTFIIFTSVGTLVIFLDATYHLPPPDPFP
Chain of N muscle-type (P07510 23-517): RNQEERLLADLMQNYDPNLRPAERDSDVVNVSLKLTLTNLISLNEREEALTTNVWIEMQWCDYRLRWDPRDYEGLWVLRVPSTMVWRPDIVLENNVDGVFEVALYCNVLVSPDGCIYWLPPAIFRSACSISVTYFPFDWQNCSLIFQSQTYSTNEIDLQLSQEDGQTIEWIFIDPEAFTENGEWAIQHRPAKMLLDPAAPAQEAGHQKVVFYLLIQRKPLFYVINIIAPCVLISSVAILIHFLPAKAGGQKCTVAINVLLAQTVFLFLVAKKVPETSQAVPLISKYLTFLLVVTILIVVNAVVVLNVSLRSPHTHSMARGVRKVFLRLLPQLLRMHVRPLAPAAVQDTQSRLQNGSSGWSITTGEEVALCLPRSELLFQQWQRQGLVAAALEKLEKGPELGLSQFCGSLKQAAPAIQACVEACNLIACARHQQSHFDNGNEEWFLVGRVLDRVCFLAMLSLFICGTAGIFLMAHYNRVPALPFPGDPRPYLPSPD
Chain of N muscle-type (P02708 21-457): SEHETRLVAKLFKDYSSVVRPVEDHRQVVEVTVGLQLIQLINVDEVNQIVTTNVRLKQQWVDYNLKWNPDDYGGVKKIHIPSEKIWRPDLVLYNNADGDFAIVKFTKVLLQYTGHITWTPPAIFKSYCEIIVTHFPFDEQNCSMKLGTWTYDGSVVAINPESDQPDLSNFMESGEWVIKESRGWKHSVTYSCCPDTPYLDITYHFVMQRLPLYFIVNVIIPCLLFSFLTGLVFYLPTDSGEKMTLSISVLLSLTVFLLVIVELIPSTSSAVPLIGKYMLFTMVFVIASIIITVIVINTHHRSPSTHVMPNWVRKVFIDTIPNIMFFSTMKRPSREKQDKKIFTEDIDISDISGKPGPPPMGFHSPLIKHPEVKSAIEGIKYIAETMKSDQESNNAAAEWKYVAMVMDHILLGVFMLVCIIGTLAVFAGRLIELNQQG
Chain of N muscle-type (Q07001 22-517): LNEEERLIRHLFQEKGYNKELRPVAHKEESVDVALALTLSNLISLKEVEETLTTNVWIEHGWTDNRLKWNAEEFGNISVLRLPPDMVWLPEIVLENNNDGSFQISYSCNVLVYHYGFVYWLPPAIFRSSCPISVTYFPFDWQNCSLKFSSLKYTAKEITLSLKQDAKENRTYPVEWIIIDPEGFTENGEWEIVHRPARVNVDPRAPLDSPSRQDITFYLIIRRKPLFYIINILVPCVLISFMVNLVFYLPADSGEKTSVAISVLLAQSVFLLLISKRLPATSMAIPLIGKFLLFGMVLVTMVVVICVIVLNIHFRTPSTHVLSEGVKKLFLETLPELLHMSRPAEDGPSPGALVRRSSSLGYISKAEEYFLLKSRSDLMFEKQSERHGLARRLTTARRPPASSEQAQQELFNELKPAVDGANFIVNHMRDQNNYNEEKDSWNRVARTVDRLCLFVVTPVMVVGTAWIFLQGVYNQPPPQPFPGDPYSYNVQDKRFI
Chain of beta 1 (P08588 whole entry): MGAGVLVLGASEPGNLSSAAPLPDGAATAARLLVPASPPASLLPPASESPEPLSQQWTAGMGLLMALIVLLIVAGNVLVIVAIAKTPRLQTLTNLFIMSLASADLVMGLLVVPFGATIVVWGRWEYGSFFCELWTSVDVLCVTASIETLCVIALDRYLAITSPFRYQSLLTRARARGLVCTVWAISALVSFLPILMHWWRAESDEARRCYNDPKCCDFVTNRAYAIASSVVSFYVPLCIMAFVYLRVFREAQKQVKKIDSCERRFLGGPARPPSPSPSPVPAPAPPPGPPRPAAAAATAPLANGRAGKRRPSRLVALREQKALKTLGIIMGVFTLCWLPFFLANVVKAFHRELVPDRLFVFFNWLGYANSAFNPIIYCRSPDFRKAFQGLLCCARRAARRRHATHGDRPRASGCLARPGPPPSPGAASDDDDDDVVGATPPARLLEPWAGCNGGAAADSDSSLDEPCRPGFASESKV
Chain of alpha 2A (P08913 whole entry): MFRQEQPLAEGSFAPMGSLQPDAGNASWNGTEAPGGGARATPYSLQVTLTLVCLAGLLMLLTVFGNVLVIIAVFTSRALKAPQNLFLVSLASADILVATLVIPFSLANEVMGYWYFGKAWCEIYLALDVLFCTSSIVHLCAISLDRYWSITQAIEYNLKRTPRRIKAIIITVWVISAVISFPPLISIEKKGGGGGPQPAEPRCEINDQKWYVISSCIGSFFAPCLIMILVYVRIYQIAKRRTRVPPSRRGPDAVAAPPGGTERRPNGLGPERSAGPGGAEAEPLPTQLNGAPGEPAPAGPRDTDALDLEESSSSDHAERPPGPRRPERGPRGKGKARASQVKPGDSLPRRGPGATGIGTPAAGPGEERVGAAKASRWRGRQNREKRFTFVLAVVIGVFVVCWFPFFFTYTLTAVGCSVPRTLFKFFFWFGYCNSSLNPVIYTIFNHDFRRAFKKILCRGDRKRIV
Chain of GSK3beta (P49841 whole entry): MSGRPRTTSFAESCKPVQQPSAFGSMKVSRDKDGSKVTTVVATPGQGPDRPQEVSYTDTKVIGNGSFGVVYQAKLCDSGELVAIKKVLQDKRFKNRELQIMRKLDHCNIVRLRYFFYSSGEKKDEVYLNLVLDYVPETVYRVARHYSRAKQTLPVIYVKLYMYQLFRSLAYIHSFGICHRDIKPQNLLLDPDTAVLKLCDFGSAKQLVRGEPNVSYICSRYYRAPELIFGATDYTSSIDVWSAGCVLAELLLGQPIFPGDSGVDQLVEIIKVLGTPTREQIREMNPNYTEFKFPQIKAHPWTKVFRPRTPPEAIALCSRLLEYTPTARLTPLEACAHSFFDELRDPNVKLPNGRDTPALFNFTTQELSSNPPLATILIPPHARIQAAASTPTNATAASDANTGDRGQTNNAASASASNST
Chain of A1 (P30542 whole entry): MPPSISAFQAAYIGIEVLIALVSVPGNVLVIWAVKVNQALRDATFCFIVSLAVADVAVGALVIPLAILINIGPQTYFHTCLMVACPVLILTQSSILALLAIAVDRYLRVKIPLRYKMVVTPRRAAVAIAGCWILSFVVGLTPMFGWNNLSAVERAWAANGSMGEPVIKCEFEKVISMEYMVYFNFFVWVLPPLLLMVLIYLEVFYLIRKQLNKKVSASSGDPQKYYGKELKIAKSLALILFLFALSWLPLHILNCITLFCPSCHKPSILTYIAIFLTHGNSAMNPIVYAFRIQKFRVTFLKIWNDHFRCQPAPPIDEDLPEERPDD

In the case of `CC[C@H](C)[C@@H]1NC(=O)[C@H](Cc2ccc(O)cc2)NC(=O)CNC(=O)CC[C@@H](C(=O)N2CC(F)C[C@H]2C(=O)N[C@@H](CC(C)C)C(=O)NCC(N)=O)NC(=O)[C@H](CC(N)=O)NC(=O)[C@H](CCC(N)=O)NC1=O` (stereo partly drawn) [RO6958375] (HELM PEPTIDE1{G.Y.I.Q.N.E.[O=C([C@@H]1CC(F)CN1[*:1])[*:2]].L.G.[am]}$PEPTIDE1,PEPTIDE1,1:R1-6:R3$$$V2.0), the EC50 (rat V1aR) is reported as > 27 µM, the “activity on rat V1aR (inactive up to)” value (rat V1aR) is reported as > 1 µM and the “% Inhibition of Control Specific Binding” value (A1) is reported as -4%. The “Mean / % of Control Specific Binding” value (A1) was 104.1%, the “% Inhibition of Control Specific Binding” value (alpha 1A) was 1% and the “Mean / % of Control Specific Binding” value (alpha 1A) was 98.8%. The “% Inhibition of Control Specific Binding” value (AT1) was -1%, the “Mean / % of Control Specific Binding” value (AT1) was 101.4% and the “% Inhibition of Control Specific Binding” value (BZD) was -16%. For the same compound, the “Mean / % of Control Specific Binding” value (BZD) was 116%, the “% Inhibition of Control Specific Binding” value (N muscle-type) was 5% and the “Mean / % of Control Specific Binding” value (N muscle-type) was 94.7%. The “% Inhibition of Control Specific Binding” value (PCP) was -6%, the “Mean / % of Control Specific Binding” value (PCP) was 105.5% and the “% Inhibition of Control Specific Binding” value (FP) was 3%. The “Mean / % of Control Specific Binding” value (FP) was 96.9%, the “% Inhibition of Control Specific Binding” value (5-HT2B) was -2% and the “Mean / % of Control Specific Binding” value (5-HT2B) was 102%. The “% Inhibition of Control Specific Binding” value (Ca2+ channel) was -36%, the “Mean / % of Control Specific Binding” value (Ca2+ channel) was 136% and the “% Inhibition of Control Specific Binding” value (Na+ channel) was 10%. The “Mean / % of Control Specific Binding” value (Na+ channel) was 89.6%, the “% Inhibition of Control Specific Binding” value (acetylcholinesterase) was -2% and the “Mean / % of Control Specific Binding” value (acetylcholinesterase) was 101.5%. For the same compound, the “agonist efficacy and potency relative to oxytocin on rat OXTR” value (rat OXTR) was “full OXTR agonist and equipotent to oxytocin”, the “highest concentration detected in rat CSF” value ([1]; 0.03 mg/kg) was 0.24 nM and the “highest concentration detected in rat CSF” value ([1]; 0.1 mg/kg) was 0.58 nM. The “CNS uptake from plasma” value ([1]; rat) was “ca. 1%”, the “brain half-life (CSF kinetic)” value ([1]; rat) was “ca. 70 min” and the half-life in plasma ([1]; rat) was 10 to 15 min. For the same compound, the subcutaneous absorption ([1]; rat) was “rapid”, the plasma protein binding [2] was “negligible” and the “current-membrane voltage relationship and input resistance after CPA” value [3] was “normalized”. For the same compound, the “differences in passive membrane properties between control and CPA rats” value [3] was “not observed”, the “effect on number of evoked action potentials after CPA” value [3] was “only partially recovered” and the “effect on rheobase after CPA” value [3] was “fully restored”. The “AUC of current-voltage (IV) curve (Fig. 5L)” value ([3]; 0.07 mg/kg) was 36.9 ± 4.56, the “AUC of number of action potentials per current step (Fig. 5J)” value ([3]; sc, 0.07 mg/kg) was 9.79 ± 2.74 and the “input resistance (Rin) at 80 pA (Fig. 5M)” value ([3]; sc, 0.07 mg/kg) was 180.7 MΩ. For the same compound, the “membrane capacitance, Cm (Fig. 5E)” value ([3]; sc, 0.07 mg/kg) was 65.11 pF, the “membrane resistance, Rm (Fig. 5D)” value ([3]; sc, 0.07 mg/kg) was 77.59 MΩ and the “resting membrane potential, Vrest (Fig. 5C)” value ([3]; sc, 0.07 mg/kg) was -66.87 mV. For the same compound, the “rheobase (Fig. 5K)” value ([3]; sc, 0.07 mg/kg) was 209, the “social deficits observed in CPA rats” value (CPA rats) was “not evident” and the “social interaction time (Fig. 5O)” value (CPA rats; 0.001 mg/kg) was 198.6 s. The “social interaction time (Fig. 5O)” value (CPA rats; 0.07 mg/kg) was 190.2 s, the CPA-induced transcriptomic changes (mPFC transcriptome) was “partially prevented” and the “% Inhibition of Control Specific Binding” value (A3) was 4%. The “Mean / % of Control Specific Binding” value (A3) was 96.4%, the “% Inhibition of Control Specific Binding” value (alpha 2A) was -7% and the “Mean / % of Control Specific Binding” value (alpha 2A) was 106.7%. For the same compound, the “% Inhibition of Control Specific Binding” value (beta 1) was -5%, the “Mean / % of Control Specific Binding” value (beta 1) was 105.2% and the “% Inhibition of Control Specific Binding” value (H1) was -1%. For the same compound, the “Mean / % of Control Specific Binding” value (H1) was 100.9%, the “% Inhibition of Control Specific Binding” value (M2) was -14% and the “Mean / % of Control Specific Binding” value (M2) was 113.8%. For the same compound, the “% Inhibition of Control Specific Binding” value (mu) was 2%, the “Mean / % of Control Specific Binding” value (mu) was 98.2% and the “% Inhibition of Control Specific Binding” value (PPARgamma) was -3%. The “Mean / % of Control Specific Binding” value (PPARgamma) was 103.1%, the “% Inhibition of Control Specific Binding” value (5-HT3) was 20% and the “Mean / % of Control Specific Binding” value (5-HT3) was 80%. For the same compound, the “% Inhibition of Control Specific Binding” value (sigma) was 4%, the “Mean / % of Control Specific Binding” value (sigma) was 96.2% and the “% Inhibition of Control Specific Binding” value (GR) was -9%. The “Mean / % of Control Specific Binding” value (GR) was 109.1%, the “% Inhibition of Control Specific Binding” value (ERalpha) was -2% and the “Mean / % of Control Specific Binding” value (ERalpha) was 101.7%. For the same compound, the “% Inhibition of Control Specific Binding” value (NE transporter) was 3%, the “Mean / % of Control Specific Binding” value (NE transporter) was 97.2% and the “% Inhibition of Control Specific Binding” value (COX2) was 15%. The “Mean / % of Control Specific Binding” value (COX2) was 85.3%, the “% Inhibition of Control Specific Binding” value (ACE) was -28% and the “Mean / % of Control Specific Binding” value (ACE) was 128.2%. For the same compound, the “% Inhibition of Control Specific Binding” value (GSK3alpha) was -5%, the “Mean / % of Control Specific Binding” value (GSK3alpha) was 105.2% and the “% Inhibition of Control Specific Binding” value (GSK3beta) was -2%. For the same compound, the “Mean / % of Control Specific Binding” value (GSK3beta) was 102.1%, the “% Inhibition of Control Specific Binding” value [4] was 8% and the “Mean / % of Control Specific Binding” value [4] was 92.1%.
